IC50 data for 58 compounds are collected here from patent US8084457B2, “Pharmaceutically active 4,6-disubstituted aminopyrimidine derivatives as modulators of protein kinases” (Lead Discovery Center GmbH, priority 2003, dated 2011).

Experiment [1] concerns the target T1, CDK9/Cyclin T1 (Homo sapiens, UniProt P50750).
T1 construct: made in house; host or cells: HEK293 cells, recombinant adenovirus
The experiment is described as follows: Kinase assay using CDK9/Cyclin T1. Conditions: read-out: CDK9 (activity range). In kind it is biochemical. An excerpt:
Cloning of CDK9 and Cyclin T1:
Both cDNA fragments were cloned by PCR into pDONR201 vectors using the gateway recombination system (Invitrogen) according to the manufacturer's recommendations. The fragments were subcloned into a gateway-adapted shuttle vector (pPM7) for production of recombinant adenovirus. All plasmids were verified by restriction digests and sequencing analysis.
Expression and Purification of CDK9/Cyclin T1 Proteins:
Expression and purification was in principle performed as described by Cotten et al. (M. Cotten et al., Nucleic acids research, 2003, 31(28), 128).
Kinase Assay Using CDK9/Cyclin T1:
Kinase assays were performed in principle as described by Cotten et al. (M. Cotten et al., Nucleic acids research, 2003, 31(28), 128).

The target of experiment [2] is T2, CDK2/CyclinA (Homo sapiens, UniProt P24941).
T2 construct: purchased Proqinase
The experiment is described as follows: Kinase assay determining CDK2/CyclinA activity. It is filed as biochemical. Conditions: read-out: CDK2 (activity range). The procedure: Kinase Assays Determining CDK2/CyclinA and CDK5/p35 Activity:
Kinase assays were performed as described by the manufacturers recommendations (Proqinase for CDK2/CyclinA and Upsate for CDK5/p35).

T1 sequence (P50750 whole entry): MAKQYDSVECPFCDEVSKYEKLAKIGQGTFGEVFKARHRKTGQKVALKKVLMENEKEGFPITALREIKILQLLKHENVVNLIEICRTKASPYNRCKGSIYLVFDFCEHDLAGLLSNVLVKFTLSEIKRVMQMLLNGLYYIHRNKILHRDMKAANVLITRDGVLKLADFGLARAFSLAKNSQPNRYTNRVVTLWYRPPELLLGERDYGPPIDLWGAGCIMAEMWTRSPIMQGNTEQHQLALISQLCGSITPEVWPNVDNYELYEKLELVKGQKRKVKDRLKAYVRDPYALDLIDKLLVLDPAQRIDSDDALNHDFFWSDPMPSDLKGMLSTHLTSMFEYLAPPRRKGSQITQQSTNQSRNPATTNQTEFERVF
T1 sequence (O60563 whole entry partner): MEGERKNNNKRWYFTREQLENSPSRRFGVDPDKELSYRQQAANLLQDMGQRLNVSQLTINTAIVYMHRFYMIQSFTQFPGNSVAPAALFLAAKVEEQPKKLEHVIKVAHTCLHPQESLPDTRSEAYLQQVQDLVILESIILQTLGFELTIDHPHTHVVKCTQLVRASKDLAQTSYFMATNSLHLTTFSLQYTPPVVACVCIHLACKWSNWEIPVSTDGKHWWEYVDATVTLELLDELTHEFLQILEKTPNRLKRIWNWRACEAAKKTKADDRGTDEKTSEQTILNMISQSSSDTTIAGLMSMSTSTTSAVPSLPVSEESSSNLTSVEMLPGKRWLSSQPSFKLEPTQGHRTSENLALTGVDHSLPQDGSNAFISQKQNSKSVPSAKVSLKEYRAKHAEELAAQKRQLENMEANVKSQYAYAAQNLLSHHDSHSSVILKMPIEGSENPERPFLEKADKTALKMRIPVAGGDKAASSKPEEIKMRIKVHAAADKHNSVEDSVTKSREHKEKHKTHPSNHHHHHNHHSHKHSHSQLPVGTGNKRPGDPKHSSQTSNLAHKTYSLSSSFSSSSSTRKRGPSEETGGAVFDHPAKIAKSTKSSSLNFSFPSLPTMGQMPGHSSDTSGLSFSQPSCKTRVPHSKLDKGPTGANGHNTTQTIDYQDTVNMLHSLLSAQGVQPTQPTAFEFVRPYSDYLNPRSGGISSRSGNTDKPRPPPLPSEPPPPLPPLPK

`Nc1ccc(C(=O)Nc2ccc(Nc3cc(-c4ccc(O)cc4)ncn3)cc2)cc1` [(16)]: the IC50 in experiment [1] and in experiment [2] was 1 to 10 µM each time.

Take `Cc1ccc(S(=O)(=O)Nc2ccc(Nc3cc(-c4ccc(CCC(=O)O)cc4)ncn3)cc2)cc1` [(17)]: the IC50 in experiment [1] and in experiment [2] was 10 to 250 µM throughout.

For `CCCN(c1ccc(Nc2cc(-c3ccccc3OC)ncn2)cc1)S(=O)(=O)c1ccc(C)cc1` [(18)], the IC50 in experiment [1] lay within 1 to 10 µM; in experiment [2], 10 to 250 µM.

As to `COc1ccccc1-c1cc(Nc2ccc(NC(=O)C(C)(C)C)cc2)ncn1` [(19)], the IC50 fell in the range of 0.001 to 1 µM in experiment [1] and 1 to 10 µM in experiment [2].

Take `COc1ccccc1-c1cc(Nc2ccc(NC(=O)c3ccccc3N)cc2)ncn1` [(20)]: the figures for the IC50 in experiment [1] and in experiment [2] were 0.001 to 1 µM and 1 to 10 µM, respectively.

As to `Nc1ccc(C(=O)Nc2ccc(Nc3cc(-c4cccc(N)c4)ncn3)cc2)cc1` [(21)], the IC50 in experiment [1] and in experiment [2] was 1 to 10 µM in each case.

On to `COc1ccccc1-c1cc(Nc2ccc(NS(=O)(=O)c3ccc(C(C)C)cc3)cc2)ncn1` [(23)], for which the IC50 was in the range of 0.001 to 1 µM in experiment [1] and 1 to 10 µM in experiment [2].

Turning to `Cc1ccc(S(=O)(=O)Nc2ccc(Nc3cc(Cl)ncn3)cc2)cc1` [(24)], the IC50 in experiment [1] is 10 to 250 µM; in experiment [2] it was 1 to 10 µM.

`Nc1ccc(C(=O)Nc2ccc(Nc3cc(Cl)ncn3)cc2)cc1` [(25)]: the IC50 in experiment [1] and in experiment [2] was 10 to 250 µM each time.

Take `COc1ccccc1-c1cc(N(C)c2ccc(N)cc2)ncn1` [(26)]: the IC50 in experiment [1] and in experiment [2] was 1 to 10 µM in each case.

`COC(=O)CN(c1ccc(Nc2cc(-c3ccc(O)cc3)ncn2)cc1)S(=O)(=O)c1ccc(C)cc1` [(27)]: the IC50 fell in the range of 1 to 10 µM in experiment [1] and 0.001 to 1 µM in experiment [2].

On to `COC(=O)CN(c1ccc(Nc2cc(-c3ccccc3OC)ncn2)cc1)S(=O)(=O)c1ccc(C)cc1` [(28)], for which the IC50 in experiment [1] and in experiment [2] was 1 to 10 µM throughout.

For `COc1ccccc1-c1cc(Nc2ccc(NC(=O)[C@@H]3CCCCN3C(=O)OC(C)(C)C)cc2)ncn1` [(29)], the IC50 is 0.001 to 1 µM in experiment [1] and 1 to 10 µM in experiment [2].

For the compound `COc1ccc(-c2cc(Nc3ccc(NC(=O)c4ccc(N)cc4)cc3)ncn2)c(OC)c1` [(31)], the IC50 in experiment [1] and in experiment [2] was 0.001 to 1 µM in each case.

Regarding `Nc1ccc(C(=O)Nc2ccc(Nc3cc(/C=C/c4ccccc4)ncn3)cc2)cc1` [(32)], the IC50 in experiment [1] and in experiment [2] was 10 to 250 µM throughout.

In the case of `COc1ccccc1-c1cc(Nc2ccc(NS(=O)(=O)c3ccc(-c4ccccc4)cc3)cc2)ncn1` [(34)], the IC50 in experiment [1] and in experiment [2] was 1 to 10 µM throughout.

As for `COc1ccc(C(C)C)cc1-c1cc(Nc2ccc(NC(=O)c3ccc(N)cc3)cc2)ncn1` [(35)], the IC50 in experiment [1] and in experiment [2] was 10 to 250 µM each time.

Take `COc1ccccc1-c1cc(Nc2ccc(NC(=O)C3CC4CCC3C4)cc2)ncn1` (centres unmarked) [(36)]: the values for the IC50 in experiment [1] and in experiment [2] were 0.001 to 1 µM and 10 to 250 µM, respectively.

Take `COc1ccccc1-c1cc(Nc2ccc(NC(=O)C(c3ccccc3)C(C)C)cc2)ncn1` (centres unmarked) [(37)]: the IC50 was 1 to 10 µM in experiment [1] and 10 to 250 µM in experiment [2].

On to `COc1ccccc1-c1cc(Nc2ccc(NC(=O)NC3CCCCC3)cc2)ncn1` [(38)], for which the IC50 fell in the range of 0.001 to 1 µM in experiment [1] and 1 to 10 µM in experiment [2].

For the compound `COc1ccc(Cl)cc1-c1cc(Nc2ccc(NC(=O)c3ccc(N)cc3)cc2)ncn1` [(39)], the IC50 is 1 to 10 µM in experiment [1] and 10 to 250 µM in experiment [2].

In the case of `Cc1ccc(S(=O)(=O)Nc2ccc(Nc3cc(-c4cccc(/C=C/C(=O)O)c4)ncn3)cc2)cc1` [(40)], the IC50 in experiment [1] and in experiment [2] was 10 to 250 µM each time.

Take `COc1ccccc1-c1cc(Nc2ccc(NC(=O)C3CCCCC3)cc2)ncn1` [(41)]: the results for the IC50 in experiment [1] and in experiment [2] were 1 to 10 µM and 10 to 250 µM, respectively.

`COc1ccccc1-c1cc(Nc2ccc(NC(=O)CC(C)(C)C)cc2)ncn1` [(42)]: the IC50 in experiment [1] and in experiment [2] was 1 to 10 µM in each case.

As for `Nc1ccc(C(=O)Nc2ccc(Nc3cc(NCC4CCCCC4)ncn3)cc2)cc1` [(43)], the results for the IC50 in experiment [1] and in experiment [2] were 1 to 10 µM and 10 to 250 µM, respectively.

As to `COc1ccccc1-c1cc(Nc2ccc(C(=O)NC3CCCCC3)cc2)ncn1` [(44)], the IC50 in experiment [1] fell in the range of 0.001 to 1 µM; in experiment [2] it was 1 to 10 µM.

On to `COc1ccccc1-c1cc(Nc2ccc(NC(=O)c3ccc(C(C)(C)C)cc3)cc2)ncn1` [(45)], for which the IC50 in experiment [1] was 1 to 10 µM; in experiment [2], 10 to 250 µM.

In the case of `COc1ccccc1-c1cc(Nc2ccc(NC(=O)C3(NC(=O)OC(C)(C)C)CCCC3)cc2)ncn1` [(47)], the IC50 lay within 0.001 to 1 µM in experiment [1] and 10 to 250 µM in experiment [2].

As to `COc1ccccc1-c1cc(Nc2ccc(NC(=O)CC3CCCCN3C(=O)OC(C)(C)C)cc2)ncn1` (centres unmarked) [(48)], the IC50 in experiment [1] and in experiment [2] was 1 to 10 µM in each case.

On to `COc1ccccc1-c1cc(Nc2ccc(NC(=O)c3ccc(N4CCN(C)CC4)cc3)cc2)ncn1` [(49)], for which the IC50 in experiment [1] lay within 0.001 to 1 µM; in experiment [2] it was 1 to 10 µM.

In the case of `COc1ccccc1-c1cc(Nc2ccc(NC(=O)c3ccncc3)cc2)ncn1` [(50)], the IC50 lay in the range of 1 to 10 µM in experiment [1] and 10 to 250 µM in experiment [2].

With `COc1cccc(OC)c1-c1cc(Nc2ccc(NC(=O)c3ccc(N)cc3)cc2)ncn1` [(51)], the values for the IC50 in experiment [1] and in experiment [2] were 1 to 10 µM and 10 to 250 µM, respectively.

On to `COc1ccccc1-c1cc(Nc2ccc(C(=O)Nc3ccccc3)cc2)ncn1` [(52)], for which the IC50 is 0.001 to 1 µM in experiment [1] and 10 to 250 µM in experiment [2].

With `COc1ccccc1-c1cc(Nc2ccc(NC(=N)N)cc2)ncn1` [(53)], the IC50 in experiment [1] and in experiment [2] was 1 to 10 µM throughout.

As for `COc1ccccc1-c1cc(Nc2ccc(C(=O)NC(C)(C)C)cc2)ncn1` [(54)], the IC50 in experiment [1] and in experiment [2] was 1 to 10 µM each time.

In the case of `CCOc1ccccc1-c1cc(Nc2ccc(NC(=O)c3ccc(N)cc3)cc2)ncn1` [(55)], the figures for the IC50 in experiment [1] and in experiment [2] were 0.001 to 1 µM and 1 to 10 µM, respectively.

With `COc1cccc(-c2cc(Nc3ccc(NC(=O)c4ccc(N)cc4)cc3)ncn2)c1OC` [(56)], the IC50 in experiment [1] and in experiment [2] was 1 to 10 µM throughout.

`COc1ccc(OC)c(-c2cc(Nc3ccc(NC(=O)c4ccc(N)cc4)cc3)ncn2)c1` [(57)]: the IC50 in experiment [1] and in experiment [2] was 10 to 250 µM in each case.

For `CC(C)Oc1ccccc1-c1cc(Nc2ccc(NC(=O)c3ccc(N)cc3)cc2)ncn1` [(58)], the IC50 in experiment [1] and in experiment [2] was 0.001 to 1 µM in each case.

Consider `Nc1ccc(C(=O)Nc2ccc(Nc3cc(NCCO)ncn3)cc2)cc1` [(60)], for which the IC50 lay within 1 to 10 µM in experiment [1] and 10 to 250 µM in experiment [2].

Regarding `COc1ccccc1-c1cc(Nc2ccc(NC(=O)C34CC5CC(CC(C5)C3)C4)cc2)ncn1` [(61)], the IC50 is 1 to 10 µM in experiment [1] and 10 to 250 µM in experiment [2].

As for `COc1ccccc1-c1cc(Nc2ccc(-c3nc4ccccc4o3)cc2)ncn1` [(62)], the IC50 in experiment [1] and in experiment [2] was 10 to 250 µM in each case.

In the case of `COc1ccccc1-c1cc(Nc2ccc(-c3nc4ccccc4[nH]3)cc2)ncn1` [(63)], the IC50 in experiment [1] and in experiment [2] was 0.001 to 1 µM each time.

Take `Nc1ccc(C(=O)Nc2ccc(Nc3cc(-c4ccncc4)ncn3)cc2)cc1` [(67)]: the IC50 in experiment [1] and in experiment [2] was 10 to 250 µM in each case.

As to `COc1ccccc1-c1cc(Nc2ccc(NC(=O)c3cn(C)cn3)cc2)ncn1` [(70)], the figures for the IC50 in experiment [1] and in experiment [2] were 0.001 to 1 µM and 1 to 10 µM, respectively.

For `COc1ccccc1-c1cc(Nc2ccc(NC(=O)Cc3ccccc3)cc2)ncn1` [(71)], the IC50 in experiment [1] is 0.001 to 1 µM; in experiment [2], 1 to 10 µM.

With `CN1CCC(Nc2cc(Nc3ccc(NC(=O)C(C)(C)C)cc3)ncn2)CC1` [(74)], the IC50 in experiment [1] and in experiment [2] was 10 to 250 µM each time.

In the case of `Nc1ccc(C(=O)Nc2ccc(Nc3cc(-c4ccccc4)ncn3)cc2)cc1` [(76)], the IC50 in experiment [1] lay within 1 to 10 µM; in experiment [2], 10 to 250 µM.

`Nc1ccc(C(=O)Nc2ccc(Nc3cc(-c4cccs4)ncn3)cc2)cc1` [(77)]: the values for the IC50 in experiment [1] and in experiment [2] were 1 to 10 µM and 10 to 250 µM, respectively.

Take `CC(C)(C)C(=O)Nc1ccc(Nc2cc(NCCN)ncn2)cc1` [(79)]: the IC50 in experiment [1] and in experiment [2] was 10 to 250 µM in each case.

Turning to `CC(C)(C)C(=O)Nc1ccc(Nc2cc(NCCCO)ncn2)cc1` [(80)], the IC50 in experiment [1] and in experiment [2] was 10 to 250 µM throughout.

As to `COc1ccccc1-c1cc(Nc2ccc(NC(=O)c3nc4ccccc4s3)cc2)ncn1` [(84)], the IC50 in experiment [1] lay in the range of 1 to 10 µM; in experiment [2], 10 to 250 µM.

Turning to `CC(C)(C)C(=O)Nc1ccc(Nc2cc(-c3ccccc3OCc3ccccc3)ncn2)cc1` [(85)], the IC50 in experiment [1] is 0.001 to 1 µM; in experiment [2], 1 to 10 µM.

For `COc1ccccc1-c1cc(Nc2ccc(NC(=O)[C@@H]3CCN3)cc2)ncn1` [(90)], the IC50 was 0.001 to 1 µM in experiment [1] and 1 to 10 µM in experiment [2].

As for `COc1ccc(-c2cc(NCCc3ccncc3)ncn2)cc1` [(92)], the IC50 in experiment [1] and in experiment [2] was 10 to 250 µM in each case.

Consider `COc1ccccc1-c1cc(NCCc2ccncc2)ncn1` [(93)], for which the IC50 in experiment [1] was in the range of 1 to 10 µM; in experiment [2], 10 to 250 µM.

For `Oc1ccccc1-c1cc(NCCc2ccncc2)ncn1` [(94)], the IC50 in experiment [1] lay in the range of 1 to 10 µM; in experiment [2], 10 to 250 µM.

On to `COc1ccccc1-c1cc(N(C)c2ccc(NS(=O)(=O)c3ccc(C)cc3)cc2)ncn1` [(96)], for which the IC50 in experiment [1] and in experiment [2] was 1 to 10 µM each time.
